Experimental data: the supplement of paper PMC10307832

Legend:
Assay in all cases: relative viability (nuclei count vs DMSO), 5 days (fraction); higher = more cells survive
[1] = compound: CN(C)CC1=CC(=CC=C1)N=C(C2=CC=CC=C2)C3=C(NC4=C3C=CC(=C4)C(=O)N(C)C)O + O=C(c1cc(Cc2n[nH]c(=O)c3ccccc23)ccc1F)N1CCN(C(=O)C2CC2)CC1 [Olaparib] (partner 8 µM)
Summary of the method: (§1)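 Relative viability was taken as the ratio of nuclei in treated wells to nuclei in vehicle wells. Lung cancer cell lines in 1536-well plates received compounds by pin tool one day after seeding, either one drug alone or a fixed anchor-drug dose plus five library-drug doses (not always all listed) in √10 steps. Nuclei were counted on 4× images after 5 days of treatment, and values are medians of duplicate plates.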

[2] = compound: CN(C)CC1=CC(=CC=C1)N=C(C2=CC=CC=C2)C3=C(NC4=C3C=CC(=C4)C(=O)N(C)C)O + CS(=O)(=O)N1CCN(Cc2cc3nc(-c4cccc5[nH]ncc45)nc(N4CCOCC4)c3s2)CC1 [Pictilisib] (partner 1 µM)
Summary of the method: as §1

[3] = compound: CN(C)CC1=CC(=CC=C1)N=C(C2=CC=CC=C2)C3=C(NC4=C3C=CC(=C4)C(=O)N(C)C)O + CC(C)C[C@H](NC(=O)[C@H](Cc1ccccc1)NC(=O)c1cnccn1)B(O)O [Bortezomib] (partner 0.002 µM)
Summary of the method: as §1

[4] = compound: CN(C)CC1=CC(=CC=C1)N=C(C2=CC=CC=C2)C3=C(NC4=C3C=CC(=C4)C(=O)N(C)C)O + CC(=O)Nc1cccc(-n2c(=O)n(C3CC3)c(=O)c3c(Nc4ccc(I)cc4F)n(C)c(=O)c(C)c32)c1 [Trametinib] (partner 0.02 µM)
Summary of the method: as §1

Cell Line | relative viability ([1]; first compound 0.08 µM) | relative viability ([1]; first compound 0.253 µM) | relative viability ([1]; first compound 0.8 µM) | relative viability ([1]; first compound 2.53 µM) | relative viability ([1]; first compound 8 µM) | relative viability ([2]; first compound 0.08 µM) | relative viability ([2]; first compound 0.253 µM) | relative viability ([2]; first compound 0.8 µM) | relative viability ([2]; first compound 2.53 µM) | relative viability ([2]; first compound 8 µM) | relative viability ([3]; first compound 0.08 µM) | relative viability ([3]; first compound 0.253 µM) | relative viability ([3]; first compound 0.8 µM) | relative viability ([3]; first compound 2.53 µM) | relative viability ([3]; first compound 8 µM) | relative viability ([4]; first compound 0.08 µM) | relative viability ([4]; first compound 0.253 µM) | relative viability ([4]; first compound 0.8 µM) | relative viability ([4]; first compound 2.53 µM) | relative viability ([4]; first compound 8 µM)
201T | 0.829 | 0.801 | 0.839 | 0.817 | 0.721 | 0.674 | 0.709 | 0.681 | 0.662 | 0.675 | 1.13 | 1.15 | 1.08 | 1.06 | 0.994 | 0.71 | 0.693 | 0.73 | 0.716 | 0.657
A549 | 0.294 | 0.372 | 0.401 | 0.148 | 0.406 | 0.525 | 0.509 | 0.448 | 0.438 | 0.384 |  |  |  |  |  |  |  |  |  | 
A-427 | 0.716 | 0.711 | 0.754 | 0.707 | 0.711 | 0.751 | 0.693 | 0.902 | 0.803 | 0.706 | 0.986 | 0.941 | 1.02 | 0.935 | 0.98 | 0.752 | 0.787 | 0.776 | 0.686 | 0.663
ABC-1 | 0.91 | 0.907 | 0.952 | 0.635 | 0.756 | 0.613 | 0.811 | 0.599 | 0.643 | 0.64 | 0.324 | 0.312 | 0.264 | 0.274 | 0.316 |  |  |  |  | 
BEN | 1.09 | 0.867 | 1.1 | 0.877 | 0.927 | 0.664 | 0.587 | 0.584 | 0.55 | 0.509 | 0.951 | 0.679 | 0.794 | 0.876 | 0.717 | 1.01 | 0.799 | 1.2 | 1.01 | 0.941
Calu-6 | 0.558 | 0.549 | 0.571 | 0.565 | 0.63 | 0.899 | 0.872 | 0.932 | 0.877 | 0.852 | 1.02 | 1.06 | 1.05 | 1.13 | 1.06 |  |  |  |  | 
IA-LM | 0.941 | 0.793 | 1.02 | 0.957 | 0.962 | 0.361 | 0.463 | 0.342 | 0.389 | 0.579 |  | 0.876 | 1.12 | 1.06 | 1.11 |  |  |  |  | 
LK-2 | 0.901 | 0.653 | 0.572 | 0.679 | 0.489 | 0.52 | 0.482 | 0.591 | 0.53 | 0.473 |  |  |  |  |  | 0.776 | 0.861 | 0.674 | 0.835 | 0.655
NCI-H358 | 0.598 | 0.661 | 0.546 | 0.527 | 0.528 | 0.384 | 0.28 | 0.34 | 0.331 | 0.347 |  |  |  |  |  | 0.146 | 0.171 | 0.125 | 0.092 | 0.129
NCI-H522 | 0.573 | 0.663 | 0.545 | 0.713 | 0.622 |  |  |  |  |  |  |  |  |  |  | 0.709 | 0.84 | 0.735 | 0.746 | 0.667
NCI-H1299 | 0.982 | 0.999 | 0.962 | 0.909 | 0.901 | 0.509 | 0.854 | 0.849 | 0.6 | 0.355 | 1.02 | 1.04 | 1.01 | 0.996 | 0.912 |  |  |  |  | 
NCI-H1395 | 0.499 | 0.445 | 0.416 | 0.492 | 0.448 | 0.649 | 0.619 | 0.651 | 0.489 | 0.579 |  |  |  |  |  | 0.983 | 0.96 | 1.16 | 1 | 0.892
NCI-H1648 | 0.867 | 0.72 |  | 0.709 | 1.28 |  |  |  |  |  |  |  |  |  |  | 0.482 | 0.368 |  | 0.534 | 0.554
NCI-H1703 | 0.375 | 0.559 | 0.39 | 0.199 | 0.214 | 0.377 |  | 0.26 | 0.215 | 0.223 | 0.311 | 0.307 | 0.377 | 0.29 | 0.207 |  |  |  |  | 
NCI-H1793 | 0.924 | 0.774 | 0.678 | 0.95 | 0.758 | 0.355 | 0.266 | 0.32 | 0.35 | 0.345 |  |  |  |  |  | 0.426 | 0.418 | 0.433 | 0.381 | 0.445
NCI-H1944 | 0.424 | 0.389 | 0.373 | 0.42 | 0.377 | 0.36 | 0.343 | 0.318 | 0.367 | 0.322 |  |  |  |  |  | 0.44 | 0.4 | 0.337 | 0.464 | 0.373
NCI-H2170 | 0.672 | 0.552 | 0.491 | 0.535 | 0.554 | 0.299 | 0.329 | 0.238 | 0.303 | 0.297 |  |  |  |  |  | 0.899 | 0.892 | 0.758 | 0.917 | 0.809
NCI-H2342 | 0.453 | 0.454 | 0.506 | 0.476 | 0.561 |  |  |  |  |  |  |  |  |  |  | 0.894 | 0.751 | 0.727 | 0.906 | 1.23
SK-MES-1 | 0.634 | 0.698 | 0.588 | 0.629 | 0.522 | 0.301 | 0.316 | 0.368 | 0.332 | 0.249 |  |  |  |  |  | 0.524 | 0.576 | 0.588 | 0.497 | 0.406
SW 900 | 0.813 | 0.962 | 1.02 | 0.8 | 0.967 |  |  |  |  |  |  |  |  |  |  | 0.819 | 0.738 | 0.702 | 1.04 | 1.24
